The source of these data is PMC10609429, “Crystal Structure and Intermolecular Energy for Some Nandrolone Esters” (Molecules, 2023).

Molecules are shown by their SMILES. In brackets after ≈: the same amount, converted by molar mass. Several values for one entry are separate records, joined by “and”; a condition that tells them apart may be missing. Identical values can stand only once. Like-named read-outs stand apart in the source and are kept apart here.

Details of data set [1]: method as in PMID 28522428. The settings on record: two polymorphs, respectively; ambient temperature of 20 °C; mixtures of castor oil; cited from earlier work.
The nature of data set [2]: Solubility evaluation of nandrolone esters in oil / benzyl benzoate / benzyl alcohol mixtures. The note with it: 24 °C, oil or lipid, thermodynamic from solid. It counts as physicochemical. The procedure:
From a pharmaceutical standpoint, the solubility of esterified agents (mg/mL) plays an important role in drug development and delivery. In this context, the solubilities were evaluated in multiple mixtures based on various organic oils: medium-chain triglyceride (MCT), apricot, grape seed oil (GSO) and cottonseed oil. Each solution contains a mixture of benzyl alcohol, benzyl benzoate and oil with a volumetric ratio of 2% benzyl alcohol, 20% benzyl benzoate and the rest of 78% oil.
Solubility evaluation was accomplished at a room temperature of 24 °C in successive additions of small quantities of raw materials (a few mg each step). The mixtures were stirred for up to several hours in order to achieve a completely dissolved solution. In the case that an undissolved excess of raw materials remained in the suspension, small quantities of mixtures were added until the solutions became perfectly homogenous and clear. Two measurements were performed in order to attain a good accuracy; their average was further discussed.

Details of data set [3]: method as in PMID 817322. The note with it: oral vs subcutaneous; cited from earlier work.
For data set [4] the following is noted: unesterified nandrolone; cited from earlier work.
The conditions of data set [5]: analogue esters of testosterone; cited from earlier work.
[6] abbreviates: average over the four oil mixtures (apricot, GSO, MCT, cottonseed), read-out: Solubility (average).
Setting [7] is: medium-chain triglyceride mixture: 2% benzyl alcohol, 20% benzyl benzoate, 78% oil (v/v), room temperature 24 °C, average of two measurements, read-out: Solubility, MCT.
Setting [8] is: apricot oil / benzyl benzoate / benzyl alcohol mixture, apricot oil mixture: 2% benzyl alcohol, 20% benzyl benzoate, 78% oil (v/v), room temperature 24 °C, average of two measurements, read-out: Solubility, APRICOT.
Where [9] appears, read: cottonseed oil / benzyl benzoate / benzyl alcohol mixture, cottonseed oil mixture: 2% benzyl alcohol, 20% benzyl benzoate, 78% oil (v/v), room temperature 24 °C, average of two measurements, read-out: Solubility, COTTON.
Setting [10] is: grape seed oil / benzyl benzoate / benzyl alcohol mixture, grape seed oil mixture: 2% benzyl alcohol, 20% benzyl benzoate, 78% oil (v/v), room temperature 24 °C, average of two measurements, read-out: Solubility, GSO.

Usually solubility stands for how much of the substance goes into solution per volume. `CCCCCC(=O)O[C@]1(C(C)=O)CC[C@H]2[C@@H]3CCC4=CC(=O)CC[C@]4(C)[C@H]3CC[C@@]21C` [hydroxyprogesterone caproate]: the solubility in data set [1] is 278 mg/mL and 301 mg/mL.
Turning to `C[C@]12CC[C@H]3[C@@H](CCC4=CC(=O)CC[C@@H]43)[C@@H]1CC[C@@H]2OC(=O)CCc1ccccc1` [NPhp, Nandrolone phenylpropionate], the solubility in data set [2] (setting [6]) was roughly 138 mg/mL (≈ 339 mM); in data set [2] (setting [7]), 148 mg/mL (≈ 365 mM); in data set [2] (setting [8]), 127 mg/mL (≈ 313 mM); in data set [2] (setting [9]), 140 mg/mL (≈ 345 mM); in data set [2] (setting [10]), 137 mg/mL (≈ 336 mM).
As for `C[C@]12CC[C@H]3[C@@H](CCC4=CC(=O)CC[C@@H]43)[C@@H]1CC[C@@H]2O` [nandrolone, Estr-4-en-17β-ol-3-one], in data set [3], the “Potency of the oral form compared with subcutaneous administration” value is given as “one-tenth”. In addition, the Half-life result in data set [4] is given as “a few hours”.
For `CCC(=O)OC1CCC2C3CCC4=CC(=O)CCC4C3CCC12C` (centres unmarked) [NPro, Nandrolone propionate], the solubility in data set [2] (setting [6]) is roughly 188 mg/mL (≈ 569 mM); in data set [2] (setting [7]), 187 mg/mL (≈ 566 mM); in data set [2] (setting [8]), 181 mg/mL (≈ 548 mM); in data set [2] (setting [9]), 180 mg/mL (≈ 544 mM); in data set [2] (setting [10]), 204 mg/mL (≈ 619 mM).
On the same counts, the results for `CCCCCCCCCCC(=O)OC1CCC2C3CCC4=CC(=O)CCC4C3CCC12C` (centres unmarked) [NUnd, Nandrolone undecanoate] are roughly 192 mg/mL (≈ 433 mM), 211 mg/mL (≈ 478 mM), 183 mg/mL (≈ 413 mM), 199 mg/mL (≈ 450 mM) and 173 mg/mL (≈ 391 mM).
For `C[C@]12CC[C@H]3[C@@H](CCC4=CC(=O)CC[C@@]43C)[C@@H]1CC[C@@H]2OC(=O)CCC1CCCC1` [testosterone cypionate], in data set [5], the solubility was 255 mg/mL (≈ 618 mM).
Consider `CCCCCCCCCCC(=O)O[C@H]1CC[C@H]2[C@@H]3CCC4=CC(=O)CC[C@]4(C)[C@H]3CC[C@]12C` [undecanoate ester of testosterone], for which the solubility in data set [5] is reported as 197 mg/mL (≈ 431 mM).
